The results in this text go back to US20240182525A1, “NOVEL BICYCLIC COMPOUND, OPTICAL ISOMER THEREOF OR PHARMACEUTICALLY ACCEPTABLE SALT THEREOF, USE THEREOF, AND PREPARATION METHOD THEREFOR” (KOREARESEARCH INSTITUTE OF BIOSCIENCE AND BIOTECHNOLOGY, priority 2021, published 2024).

A short description of one data set: Cytotoxicity assay, A375. The format is cell-based. To be noted: human, A375 cells (malignant melanoma); A375, 48 hours, maximum concentration 100 μM. Here is the method:
(§1) To measure the cytotoxicity of the compound represented by Chemical Formula 1 (Chemical Formula 1-1), toxicity was measured in mouse preadipocyte 3T3-L1 cell line, human malignant melanoma A375 cell line, mouse malignant melanoma B16F10 cell line, human oral cancer MDA-MB-435 cell line, mouse breast cancer 4T1 cell line, human breast cancer MCF7 cell line, human brain cancer U87MG cell line, human glioblastoma U373MG cell line, human cervical cancer HeLa cell line, mouse embryonic fibroblast (MEF) cell line, human embryonic kidney HEK293T cell line (Korea Cell Line Bank). First, 1×10^4 cells were divided into 200 μl each in a 96-well plate using Dulbecco's Modified Eagle's Medium (DMEM) supplemented with 10% fetal bovine serum (FBS), […] streptomycin, and 50 U/ml penicillin, while maintaining various cells at 37r in an atmosphere of 5% CO2. The cells were treated with the compound of Chemical Formula 1-1 of the present invention at a maximum concentration of 100 μM and cultured for 48 hours under the same culture conditions. After the incubation, the culture media were removed and the cytotoxicity test results were confirmed (Table 2 and FIG. 3 below).

A short description of data set [1]: Cytotoxicity assay, MDA-MB-435. The data set is classed as cell-based. The settings on record: human, MDA-MB-435 cells (printed as oral cancer); MDA-MB-435, 48 hours, maximum concentration 100 μM. Here is the method: as §1
Data set [2] is described as follows: Cytotoxicity assay, U87MG. The data set is classed as cell-based. The settings on record: human, U87MG cells (brain cancer), maximum concentration 100 μM. Here is the method:
as §1

The nature of the next data set: Cytotoxicity assay, MEF. The data set is classed as cell-based. The settings on record: mouse, MEF cells (embryonic fibroblasts), maximum concentration 100 μM. As for the experimental part: as §1
Data set [3] is described as follows: Cytotoxicity assay, HEK293T. The data set is classed as cell-based. The settings on record: human, HEK293T cells (embryonic kidney), maximum concentration 100 μM. Here is the method:
as §1

Data set [4] has as its system Wnt activity (HEK293T-TopFLASH cells). The data set can be described thus: TopFLASH luciferase assay, HEK293T-TopFLASH stable cell line (Wnt3a activity assay). The data set is classed as cell-based, human. The settings on record: 1-50 μM, 24 hours. Here is the method: In order to measure the level of Wnt activity of the compound of Chemical Formula 1-1, TopFLASH luciferase assay was performed on the HEK293T cell line. The TopFLASH luciferase assay was performed by creating a HEK293T-TopFLASH stable cell line with a viral vector made by combining Luciferase (reporter gene) with the TCF7 promoter. HEK293T-TopFLASH cells were cultured in a 96-well plate (1×10^4 cells/well), and the next day, the cells were treated with 1-50 μM of the compound of Chemical Formula 1-1 and confirmed by One-Glo™ (modified luciferin, Pormega, USA) after 24 hours.

The test system of the next data set is 3T3-L1 cells. The data set can be described thus: Cytotoxicity in 3T3-L1 cells in L-conditional or Wnt3a-containing culture media. The format is cell-based, mouse. To be noted: 2.5 to 10 μM, Wnt3a-containing culture media (2.5%), FIG. 3. As for the experimental part:
Next, in order to confirm the cytotoxicity in the Chemical Formula 1-1 and wnt3 culture, toxicity in 3T3-L1 cells was measured on the compound of Chemical Formula 1-1 of the present invention at a concentration of 2.5 to 10 μM in L-conditional media or Wnt3a-containing culture media (2.5%).

The next data set relates to mouse 3T3-L1 cell line. Put plainly: Adipogenesis inhibitory effect test, Oil Red O staining. The format is cell-based. As for the experimental part: The adipogenesis inhibitory activity of Chemical Formula 1 according to the present invention was measured through Oil Red O staining in mouse 3T3-L1 cell line. First, 3T3-L1 cells were placed in a 48-well plate (1×10^4 cell/well) and cultured for 24 hours in a 37° C. CO2 incubator. The next day, the cells were replaced with the normal culture media (Undifferentiated media; UND) and the differentiation induction medium (Differentiation media; DM), respectively, followed by treatment with 2.5-10 μM of Chemical Formula 1-1 for 48 hours. Then, the cells were replaced with the normal culture media (Maintainment media; MM), and cultured with 2.5-10 μM of Chemical Formula 1-1 for 72 hours, and then treated with Oil Red O.
In addition, the same experiment was conducted with the compound of Chemical Formula 1-1 at a fixed concentration of 7.5 μM and Wnt3a-conditional media at 10-2.5%.

For data set [5], the system named is adipocyte differentiation-associated proteins in the 3T3-L1 cell line. Put plainly: Western blotting of adipocyte differentiation-associated proteins. To be noted: 7.5 μM, FIG. 10. The data set is classed as cell-based, mouse. Here is the method: Additionally, in order to verify the adipogenesis inhibitory ability of the Chemical Formula 1 according to the present invention, the level of adipocyte differentiation-associated proteins in the 3T3-L1 cell line was measured. The 3T3-L1 cells were cultured in a 6-well plate (2×10^5 cell/well), and the next day, the cells were replaced with normal culture media (Undifferentiated media; UND) and differentiation induction media (Differentiation media; DM), respectively, followed by treatment with the compound of Chemical Formula 1-1 at 7.5 μM for 48 hours, and then the cells were replaced with new normal culture media (Maintaining media; MM). When replacement with normal culture media, the cells were treated with 7.5 μM of Chemical Formula 1-1, and cultured for 72 hours more, followed by Western blotting.

Another data set relates to MC3T3-E1 cell line. Put plainly: Cytotoxicity assay in MC3T3-E1 pre-osteoblasts. The settings on record: concentration range of 50 μM or less, 7 days, FIG. 14. The format is cell-based, mouse. As for the experimental part:
In order to measure the cytotoxicity of the compound represented by Chemical Formula 1 (Chemical Formula 1-1), toxicity was measured in the MC3T3-E1 cell line (Korea Cell Line Bank), which is a pre-osteoblast related to bone formation.
Specifically, a cytotoxicity test was performed to determine the in vivo safety of Chemical Formula 1-1 above. MC3T3-E1 cells, which are mouse osteoblasts, were inoculated into a 96-well plate at a concentration of 5×10^3 cell/well, and incubated overnight in growth media containing alpha-minimum essential media (alpha-MEM, JBI #008-53) supplemented with 10% fetal bovine serum (FBS, Gibco #16000, USA) and 1× antibiotics (Gibco #15240062, USA). […] After incubation, the media were removed, 90 μl of the media and 10 μl of WTS solution were added, and after 1 hour, the absorbance was measured at 450 nm using a microplate reader.

Bounds are passed on as bounds.

The term IC50 denotes the concentration at which inhibition is half-maximal. A low value points to inhibition by little substance. For the compound `CC(C)CC1NC(=O)C2CCCN2C(=O)C(C(O)C(C)C)NC(=O)CNC(=O)C(C(C)O)NC(=O)C2NC(=O)C(NC(=O)/C=C/c3ccccc3C(O)C(C)O)C(C)OC(=O)C(CC(N)=O)NC(=O)C(NC(=O)C(O)NC1=O)C(O)c1ccc(O)c(c1)Oc1ccc2cc1` (stereo not shown) [Chemical Formula 1-1], the IC50 at 48 h in the data set “Cytotoxicity assay, A375” was greater than 100 µM; in [1], greater than 100 µM; in [2] it was greater than 100 µM; in “Cytotoxicity assay, MEF”, greater than 100 µM; in data set [3] it was greater than 100 µM. Besides, the “Wnt activity (luciferase values)” value is given as “greatly increased” in data set [4] (compound alone, FIG. 4) and “greatly increased” in data set [4] (simultaneous treatment with Wnt3a-conditional media (2.5%), FIG. 5). For the same compound, the figures for the cytotoxicity entry with 3T3-L1 cells and in the data set on MC3T3-E1 cell line were “cytotoxicity was not observed” and “did not exhibit cytotoxicity”, respectively. Also, the adipogenesis inhibitory activity result is “exhibited the adipogenesis inhibitory activity in a concentration-dependent manner” in the data set with mouse 3T3-L1 cell line (2.5-10 μM, Oil Red O, FIG. 8) and “excellent” in the data set on mouse 3T3-L1 cell line (fixed 7.5 μM with Wnt3a-conditional media at 10-2.5%, FIG. 9). For the same compound, the “level of adipogenesis induction-associated proteins” value in data set [5] (compound alone, differentiated adipocytes) is given as “lower protein levels”; in [5] (simultaneous treatment with Wnt3a-conditional media (2.5%)) it was “lower protein levels”.
